In patent US11130769B2 (Prelude Therapeutics Incorporated, priority 2018, dated 2021):
Where two headings read alike, the source gives them in different places.

Columns and labels:
[1] = 16-membered ring
MCL-1 = MCL-1 (Homo sapiens (Human), UniProt Q07820); assay: Cell free Mcl-1:Bim affinity assay (fluorescence polarization competition); assay type: binding; settings: 15 nM MCL-1, 5 nM FITC-Bim, 1 hour at room temperature; class symbols; read-out: BIM_Ki
Summary of the method: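 Compounds competed with FITC-labelled Bim peptide (5 nM) for MCL-1 (15 nM) in HEPES/NaCl buffer with 1% DMSO, 1 h at room temperature. Fluorescence polarization (535 nm emission) gave % inhibition versus DMSO and positive controls; IC50 from 10-point curves, converted to Ki by the Nikolovska-Coleska equation.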

H929 cells = assay: Cell viability assay (H929 10 FBS); assay type: cell-based; settings: Homo sapiens, NCI-H929, 24 hours, read-out: H929_10FBS IC50
Summary of the method: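 H929 cells, 4000/well, in RPMI 1640 with 10% FBS, sodium pyruvate, HEPES and glucose were exposed to compound 24 h at 37 °C. Viability read as luminescence after 30-60 min at RT with CellTiter-Glo or ATPlite 1 Step.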

Chain of MCL-1 (Q07820 whole entry): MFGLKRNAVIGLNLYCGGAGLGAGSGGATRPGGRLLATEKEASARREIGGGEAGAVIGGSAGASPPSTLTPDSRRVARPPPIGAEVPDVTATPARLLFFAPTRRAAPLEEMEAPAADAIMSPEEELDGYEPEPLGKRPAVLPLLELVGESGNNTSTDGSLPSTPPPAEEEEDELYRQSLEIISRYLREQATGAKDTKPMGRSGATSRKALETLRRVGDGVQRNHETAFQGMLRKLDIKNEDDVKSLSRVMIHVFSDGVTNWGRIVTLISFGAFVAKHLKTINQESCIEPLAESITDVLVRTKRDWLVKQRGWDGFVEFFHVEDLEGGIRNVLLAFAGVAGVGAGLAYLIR

Ki (MCL-1) | IC50 (H929 cells) | SMILES | ring closure, yield after HPLC ([1]; from CN[C@@H](C)C(=O)NS(=O)(=O)c1ccc2c(c1)N(C[C@@H]1CC[C@H]1COCC(=O)O)C[C@@]1(CCCc3cc(Cl)ccc31)CO2, amide bond, HATU/DIEA, DMF, 20.0 mM, 20.0 °C, 1.0 h) | ring closure, yield after HPLC ([1]; from C=CCOC(C)(C)C(=O)NS(=O)(=O)c1ccc2c(c1)N(C[C@@H]1CC[C@H]1[C@@H](C=C)NC(=O)OC)C[C@@]1(CCCc3cc(Cl)ccc31)CO2, rcm bond, Hoveyda-Grubbs II, DCE, 1.17 mM, 40.0 °C)
1 to 100 nM | > 1000 nM | C[C@H]1C(=O)NS(=O)(=O)c2ccc3c(c2)N(C[C@@H]2CC[C@H]2COCC(=O)N1C)C[C@@]1(CCCc2cc(Cl)ccc21)CO3 [Example 196, (3R,6R,12S,22S)-6′-Chloro-11,12-dimethyl-15,15-dioxo-spiro[8,20-dioxa-15-thia-1,11,14-triazatetracyclo[14.7.2.03,6.019,24]pentacosa-16,18,24-triene-22,1′-tetralin]-10,13-dione] | 24.6% | –
1 to 100 nM | > 1000 nM | COC(=O)N[C@@H]1/C=C/COC(C)(C)C(=O)NS(=O)(=O)c2ccc3c(c2)N(C[C@@H]2CC[C@H]21)C[C@@]1(CCCc2cc(Cl)ccc21)CO3 [Example 251, Methyl N-[(3R,6R,7R,8E,22S)-6′-Chloro-12,12-dimethyl-13,15,15-trioxo-spiro[11,20-dioxa-15-thia-1,14-diazatetracyclo[14.7.2.03,6.019,24]pentacosa-8,16(25),17,19(24)-tetraene-22,1′-tetralin]-7-yl]carbamate] | – | 18.4%
